One molecule from US9907307B2, “Aromatic compound and uses thereof” (SUMITOMO CHEMICAL COMPANY, LIMITED, priority 2014, dated 2018) can be followed below.

The test has as its system wheat septoria tritici blotch fungus (Mycosphaerella graminicola). As to the kind of experiment: Control test against wheat septoria tritici blotch fungus, titer plate growth (Test Example 1). The test is classed as cell-based. To be noted: 150 ppm in DMSO, 1 μl in 150 μl medium, 96-well plate, 18° C., 4 days.

Turning to `CCOC(=O)C(=O)c1ccccc1COc1ccc(-c2cc(Cl)n(C)n2)cc1C` [present compound 1], the “control activity (Equation 1, degree of growth by absorbance at 550 nm)” value is recorded as no less than 70%.
